Source: US7642253B2, “Histone deacetylase inhibitors” (Takeda San Diego, Inc., priority 2005, dated 2010)

Target: HDAC2 (Homo sapiens, UniProt Q92769)
Test: HDAC2 fluorescence inhibition assay (tBoc-Lys(Ac)-AMC)

Chain of HDAC2 (Q92769 with tags, fused parts or gaps): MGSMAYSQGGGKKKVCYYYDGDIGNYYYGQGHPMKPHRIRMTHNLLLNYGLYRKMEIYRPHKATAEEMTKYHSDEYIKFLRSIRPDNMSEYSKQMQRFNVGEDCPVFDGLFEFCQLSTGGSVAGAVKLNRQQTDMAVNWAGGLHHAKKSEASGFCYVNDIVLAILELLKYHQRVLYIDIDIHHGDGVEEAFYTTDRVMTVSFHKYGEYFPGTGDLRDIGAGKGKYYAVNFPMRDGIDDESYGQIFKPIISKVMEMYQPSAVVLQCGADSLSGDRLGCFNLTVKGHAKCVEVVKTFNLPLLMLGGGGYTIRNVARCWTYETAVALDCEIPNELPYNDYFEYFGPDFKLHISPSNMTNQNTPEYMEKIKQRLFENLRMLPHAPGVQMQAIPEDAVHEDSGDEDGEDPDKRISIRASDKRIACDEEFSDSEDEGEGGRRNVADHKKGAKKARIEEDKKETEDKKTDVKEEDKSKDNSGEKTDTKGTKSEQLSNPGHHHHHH

IC50 | Structure (SMILES)
100 to 500 nM | Nc1ccccc1NC(=O)c1ccc(CN2C(=O)NCc3ccccc32)cc1 [Example 3, N-(2-aminophenyl)-4-((2-oxo-3,4-dihydroquinazolin-1(2H),-yl)methyl)benzamide]
< 50 nM | Nc1ccccc1NC(=O)c1ccc(CN2C(=S)Nc3ccccc3S2(=O)=O)cc1 [Example 4, N-(2-Amino-phenyl)-4-(1,1-dioxo-3-thioxo-3,4-dihydro-1H-1λ^6-benzo[1,2,4]thiadiazin-2-ylmethyl)-benzamide]
100 to 500 nM | CSC1=Nc2ccccc2S(=O)(=O)N1Cc1ccc(C(=O)Nc2ccccc2N)cc1 [Example 5, N-(2-Amino-phenyl)-4-(3-methylsulfanyl-1,1-dioxo-1H-1λ^6-benzo[1,2,4]thiadiazin-2-ylmethyl)-benzamide]
100 to 500 nM | CNC1=Nc2ccccc2S(=O)(=O)N1Cc1ccc(C(=O)Nc2ccccc2N)cc1 [Example 6, N-(2-Amino-phenyl)-4-(3-methylamino-1,1-dioxo-1H-1λ^6-benzo[1,2,4]thiadiazin-2-ylmethyl)-benzamide]
100 to 500 nM | Nc1ccccc1NC(=O)c1ccc(Cn2c(=O)ncc3ccccc32)cc1 [Example 8, N-(2-aminophenyl)-4-((2-oxoquinazolin-1(2H),-yl)methyl)benzamide]
100 to 500 nM | CCSC1=Nc2ccccc2S(=O)(=O)N1Cc1ccc(C(=O)Nc2ccccc2N)cc1 [Example 9, N-(2-Amino-phenyl)-4-(3-ethylsulfanyl-1,1-dioxo-1H-1λ^6-benzo[1,2,4]thiadiazin-2-ylmethyl)-benzamide]
< 50 nM | Nc1ccccc1NC(=O)c1ccc(CN2C(=O)Nc3cc(C(F)(F)F)ccc3S2(=O)=O)cc1 [Example 11, N-(2-Amino-phenyl)-4-(1,1,3-trioxo-6-trifluoromethyl-3,4-dihydro-1H-1λ^6-benzo[1,2,4]thiadiazin-2-ylmethyl)-benzamide]
< 50 nM | COc1ccc2c(c1)NC(=S)N(Cc1ccc(C(=O)Nc3ccccc3N)cc1)S2(=O)=O [Example 12, N-(2-Amino-phenyl)-4-(6-methoxy-1,1-dioxo-3-thioxo-3,4-dihydro-1H-1λ^6-benzo[1,2,4]thiadiazin-2-ylmethyl)-benzamide]
50 to 100 nM | COc1ccc2c(c1)N=C(SC)N(Cc1ccc(C(=O)Nc3ccccc3N)cc1)S2(=O)=O [Example 14, N-(2-Amino-phenyl)-4-(6-methoxy-3-methylsulfanyl-1,1-dioxo-1H-1λ6-benzo[1,2,4]thiadiazin-2-ylmethyl)-benzamide]
< 50 nM | CN1Cc2ccccc2N(Cc2ccc(C(=O)Nc3ccccc3N)cc2)C1=O [Example 15, N-(2-Amino-phenyl)-4-(3-methyl-2-oxo-3,4-dihydro-2H-quinazolin-1-ylmethyl)-benzamide]
< 50 nM | COc1ccc2c(c1)NC(=S)N(Cc1ccc(C(=O)Nc3cc(F)ccc3N)cc1)S2(=O)=O [Example 19, N-(2-Amino-5-fluoro-phenyl)-4-(6-methoxy-1,1-dioxo-3-thioxo-3,4-dihydro-1H-1λ^6-benzo[1,2,4]thiadiazin-2-ylmethyl)-benzamide]
< 50 nM | Nc1ccccc1NC(=O)c1ccc(CN2C(=O)Nc3ncc(Cl)cc3S2(=O)=O)cc1 [Example 21, N-(2-Amino-phenyl)-4-(7-chloro-1,1,3-trioxo-3,4-dihydro-1H-1λ^6-pyrido[2,3-e][1,2,4]thiadiazin-2-ylmethyl)-benzamide]
< 50 nM | Nc1ccccc1NC(=O)c1ccc(CN2C(=O)Nc3ccc(Br)cc3S2(=O)=O)cc1 [Example 23, N-(2-Amino-phenyl)-4-(7-bromo-1,1,3-trioxo-3,4-dihydro-1H-1λ^6-benzo[1,2,4]thiadiazin-2-ylmethyl)-benzamide]
50 to 100 nM | Nc1ccccc1NC(=O)c1ccc(CN2C(=O)Nc3ccccc3S2(=O)=O)nc1 [Example 24, N-(2-Amino-phenyl)-6-(1,1,3-trioxo-3,4-dihydro-1H-1λ^6-benzo[1,2,4]thiadiazin-2-ylmethyl)-nicotinamide]
< 50 nM | Nc1ccccc1NC(=O)c1ccc(CN2C(=O)Nc3ccc(-c4cncnc4)cc3S2(=O)=O)cc1 [Example 28, N-(2-Amino-phenyl)-4-(1,1,3-trioxo-7-pyrimidin-5-yl-3,4-dihydro-1H-1λ^6-benzo[1,2,4]thiadiazin-2-ylmethyl)-benzamide]
< 50 nM | Nc1ccccc1NC(=O)c1ccc(CN2C(=O)Nc3ccc(-c4ccco4)cc3S2(=O)=O)cc1 [Example 30, N-(2-Amino-phenyl)-4-(7-furan-2-yl-1,1,3-trioxo-3,4-dihydro-1H-1λ^6-benzo[1,2,4]thiadiazin-2-ylmethyl)-benzamide]
< 50 nM | Nc1ccccc1NC(=O)c1ccc(CN2C(=O)Nc3ccc(-c4cccs4)cc3S2(=O)=O)cc1 [Example 31, N-(2-Amino-phenyl)-4-(1,1,3-trioxo-7-thiophen-2-yl-3,4-dihydro-1H-1λ^6-benzo[1,2,4]thiadiazin-2-ylmethyl)-benzamide]
< 50 nM | Nc1ccccc1NC(=O)c1ccc(CN2C(=O)Nc3ccc(-c4ccoc4)cc3S2(=O)=O)cc1 [Example 32]
> 500 nM | Nc1ccccc1NC(=O)c1ccc(CN2C(=O)Nc3ccncc3S2(=O)=O)cc1 [Example 35, N-(2-Amino-phenyl)-4-(1,1,3-trioxo-3,4-dihydro-1H-1λ^6-pyrido[4,3-e][1,2,4]thiadiazin-2-ylmethyl)-benzamide]

Further lines, the molecule ahead of its results:

Structure (SMILES) | IC50
Nc1ccccc1NC(=O)c1ccc(CN2C(=O)Nc3ccccc3S2(=O)=O)cc1 [Example 1, N-(2-Amino-phenyl)-4-(1,1,3-trioxo-3,4-dihydro-1H-1λ^6-benzo[1,2,4]thiadiazin-2-ylmethyl)-benzamide] | < 50 nM
NC1=NS(=O)(=O)c2ccccc2N1Cc1ccc(C(=O)Nc2ccccc2N)cc1 [Example 2, 4-(3-Amino-1,1-dioxo-1H-1λ^6-benzo[1,2,4]thiadiazin-4-ylmethyl)-N-(2-amino-phenyl)-benzamide] | 100 to 500 nM
NC1=Nc2ccccc2S(=O)(=O)N1Cc1ccc(C(=O)Nc2ccccc2N)cc1 [Example 7, 4-(3-Amino-1,1-dioxo-1H-1λ^6-benzo[1,2,4]thiadiazin-2-ylmethyl)-N-(2-amino-phenyl)-benzamide] | 50 to 100 nM
COc1ccc2c(c1)NC(=O)N(Cc1ccc(C(=O)Nc3ccccc3N)cc1)S2(=O)=O [Example 10, N-(2-Amino-phenyl)-4-(6-methoxy-1,1,3-trioxo-3,4-dihydro-1H-1λ^6-benzo[1,2,4]thiadiazin-2-ylmethyl)-benzamide] | < 50 nM
Nc1ccccc1NC(=O)c1ccc(CN2C(=S)Nc3cc(C(F)(F)F)ccc3S2(=O)=O)cc1 [Example 13, N-(2-Amino-phenyl)-4-(1,1-dioxo-3-thioxo-6-trifluoromethyl-3,4-dihydro-1H-1λ^6-benzo[1,2,4]thiadiazin-2-ylmethyl)-benzamide] | 50 to 100 nM
CSC1=Nc2cc(C(F)(F)F)ccc2S(=O)(=O)N1Cc1ccc(C(=O)Nc2ccccc2N)cc1 [Example 16, N-(2-Amino-phenyl)-4-(3-methylsulfanyl-1,1-dioxo-6-trifluoromethyl-1H-1λ6-benzo[1,2,4]thiadiazin-2-ylmethyl)-benzamide] | > 500 nM
Nc1ccccc1NC(=O)c1ccc(CN2C(=O)Nc3cc(F)ccc3S2(=O)=O)cc1 [Example 17, N-(2-Amino-phenyl)-4-(6-fluoro-1,1,3-trioxo-3,4-dihydro-1H-1λ^6-benzo[1,2,4]thiadiazin-2-ylmethyl)-benzamide] | 100 to 500 nM
Nc1ccccc1NC(=O)c1ccc(CN2C(=S)Nc3cc(F)ccc3S2(=O)=O)cc1 [Example 18, N-(2-Amino-phenyl)-4-(6-fluoro-1,1-dioxo-3-thioxo-3,4-dihydro-1H-1λ^6-benzo[1,2,4]thiadiazin-2-ylmethyl)-benzamide] | < 50 nM
COc1ccc2c(c1)NC(=O)N(Cc1ccc(C(=O)Nc3cc(F)ccc3N)cc1)S2(=O)=O [Example 20, N-(2-Amino-5-fluoro-phenyl)-4-(6-methoxy-1,1,3-trioxo-3,4-dihydro-1H-1λ6-benzo[1,2,4]thiadiazin-2-ylmethyl)-benzamide] | < 50 nM
Nc1ccc(F)cc1NC(=O)c1ccc(CN2C(=O)Nc3ccccc3S2(=O)=O)cc1 [Example 22, N-(2-Amino-5-fluoro-phenyl)-4-(1,1,3-trioxo-3,4-dihydro-1H-1λ^6-benzo[1,2,4]thiadiazin-2-ylmethyl)-benzamide] | < 50 nM
Nc1ccccc1NC(=O)c1ccc(CN2C(=O)Nc3ccccc3S2(=O)=O)c(F)c1 [Example 25, N-(2-Amino-phenyl)-3-fluoro-4-(1,1,3-trioxo-3,4-dihydro-1H-1λ^6-benzo[1,2,4]thiadiazin-2-ylmethyl)-benzamide] | < 50 nM
Nc1ccccc1NC(=O)c1ccc(CN2C(=O)Nc3ccc(-c4ccsc4)cc3S2(=O)=O)cc1 [Example 26, N-(2-Amino-phenyl)-4-(1,1,3-trioxo-7-thiophen-3-yl-3,4-dihydro-1H-1λ^6-benzo[1,2,4]thiadiazin-2-ylmethyl)-benzamide] | < 50 nM
Nc1ccccc1NC(=O)c1ccc(CN2C(=O)Nc3ccc(-c4ccncc4)cc3S2(=O)=O)cc1 [Example 27, N-(2-Amino-phenyl)-4-(1,1,3-trioxo-7-pyridin-4-yl-3,4-dihydro-1H-1λ^6-benzo[1,2,4]thiadiazin-2-ylmethyl)-benzamide] | < 50 nM
Nc1ccccc1NC(=O)c1ccc(CN2C(=O)Nc3ccc(-c4cccnc4)cc3S2(=O)=O)cc1 [Example 29, N-(2-Amino-phenyl)-4-(1,1,3-trioxo-7-pyridin-3-yl-3,4-dihydro-1H-1λ^6-benzo[1,2,4]thiadiazin-2-ylmethyl)-benzamide] | < 50 nM
CN1Cc2ccccc2N(Cc2ccc(C(=O)Nc3ccccc3N)cc2)C1=S [Example 33, N-(2-Amino-phenyl)-4-(3-methyl-2-thioxo-3,4-dihydro-2H-quinazolin-1-ylmethyl)-benzamide] | < 50 nM
Nc1ccccc1NC(=O)c1ccc(CN2C(=O)Nc3ccccc3S2(=O)=O)s1 [Example 34, 5-(1,1,3-Trioxo-3,4-dihydro-1H-1λ^6-benzo[1,2,4]thiadiazin-2-ylmethyl)-thiophene-2-carboxylic acid(2-amino-phenyl)-amide] | 50 to 100 nM
